# Source: a melting point compilation (Tetko et al.; mined from patent text by program, amines drawn as free bases though some values may be those of a salt)
row,Compound,melting point
1,CCCCc1c(C(=O)OCC)cc(Oc2nnnn2-c2ccccc2)c2ccc(OC)cc12,94 to 96 °C
2,COC(=O)OCC(CO)CCn1cnc2cnc(N)nc21 (stereo not drawn),129 to 132 °C
3,COc1ccc(-c2[nH]c3ncnc(Nc4cccc(Cl)c4)c3c2C)cc1,265 to 268 °C
4,O=C1OC(=O)c2cc(N3C(=O)CCC3=O)ccc21,228 to 230 °C
5,COC(=O)/C(C)=C/COc1cccc(O)c1,79 to 81 °C
6,CC1(C)CCN(C(=O)Nc2cccnc2)c2cc(C#N)ccc21,183 to 185 °C
7,CCCN1CCC23c4cccc(OC)c4OC2C2CCC3(C1=O)C(C(=O)OC)C2 (stereo not drawn),126 to 128 °C
8,O=C1C=CN=CC1[N+](=O)[O-] (stereo not drawn),282 to 284 °C
9,O=S1(=O)c2ccccc2-c2[nH]nc(-c3ccccc3)c21,266 to 268 °C
10,N#CCOc1ccc2cc(-c3cnc(Cc4ccccc4)o3)ccc2c1,184 to 187 °C
11,COc1ccc(CCC(=O)Nc2nc3c(s2)CCN(CC=Cc2cccnc2)CC3)cc1,168 to 170 °C
12,CC(C)(C)C(=O)Nc1nc(OCCCCOCc2ccccc2)ccc1C=O,82 to 84 °C
13,c1ccc(-c2cc3ncnc(Nc4ccc5c(ccn5CCN5CCOCC5)c4)c3s2)cc1,225 to 226 °C
14,COC(=O)CCCc1nc(-c2ccc(F)cc2)c(-c2ccc(S(C)(=O)=O)cc2)o1,89 to 91 °C
15,CCC(CC)C(NC(=O)c1ccc(Cl)cc1)NC(=NC#N)Nc1cccnc1 (stereo not drawn),185 to 187 °C
16,CC(=O)N(C)c1cccc(-c2ccc3nncn3n2)c1,166 to 169 °C
17,CCOC(=O)c1[nH]cc2c1NC1=C(C(=O)CCC1)C2c1ccc(Sc2nc3c(F)c(F)c(F)cc3[nH]2)o1 (stereo not drawn),186 °C
18,N#Cc1sc2cc(NC(=O)OCc3ccccc3)ccc2c1Cl,155 to 166 °C
19,CC(O)c1cccc2c1OCO2 (stereo not drawn),45 to 46 °C

row,Compound,melting point
1,O=C(C=Cc1ccc(-c2ccc3ncnc(Nc4ccc(OCc5cccc(F)c5)c(Cl)c4)c3c2)o1)NOC1CCCCO1 (stereo not drawn),233 °C
2,CCCCc1nc2c(N)nc3ccccc3c2n1CCCCO,184 to 186 °C
3,Cc1cc(C(=O)CCc2sc(-c3ccc(C(F)(F)F)cc3)cc2C(C)C)ccc1OCC(=O)O,139 to 143 °C
4,Cn1ncc(C(=O)N2CCC2)c1C(=O)Nc1ccc2nc(-c3cccnc3)nn2c1,272 °C
5,CCOC(=O)C1=C(C(F)(F)F)Nc2n[nH]c(C)c2C1c1ccccc1Cl (stereo not drawn),165 to 168 °C
6,Cn1c(CO)nnc1NCCCCOc1cccc(CN2CCCCC2)c1,128 to 130 °C
7,CC1CC(=O)NN=C1c1ccc(N=CNc2ccc(C3=NNC(=O)CC3C)cc2)cc1 (stereo not drawn),306 to 308 °C
8,C=C(c1ccc(N(C)C)cc1)c1ccc(N(C)C)cc1C,90 to 91 °C
9,Nc1nc2ccccc2c2c1ncn2CCOCc1ccncc1,159 to 161 °C
10,CCC(CC)c1ccc(Cl)c2nc3n(c12)CCCCN3c1ncc([N+](=O)[O-])cc1C,204 to 205 °C
11,COc1cc(C)cc(OC)c1-c1nc(=NO)c(=O)n(C)c2ccccc12,150 °C
12,COc1nc(N)nc2c1CCO2,172 to 177 °C
13,O=S(=O)(Cl)c1cccc(-c2cccc(-c3nc(-c4ccc(C(F)(F)F)cc4)cc(C(F)(F)F)n3)c2)c1,176 °C
14,Cc1nnc(SCc2nc(NCCCOc3cccc(CN4CCCCC4)c3)n(C)n2)s1,63 °C
15,CCCc1cc(N2CCC(NCC(O)c3ccc4ccccc4n3)CC2)nc2sc(C(N)=O)c(N)c12 (stereo not drawn),159 to 161 °C
16,COCCN1CCC(c2nc3cc(-c4ccc(-n5cnnn5)cc4F)ccc3o2)CC1,148 to 152 °C
17,O=C1c2ccccc2C(=O)N1OCc1cnn(C(c2ccccc2)(c2ccccc2)c2ccccc2)c1,186 to 188 °C
18,CCOC(=O)c1cn(-c2nonc2C)c2cc(F)c(F)cc2c1=O,178 to 180 °C
19,CSc1ccc(C2=CC(=O)C(C)(C)O2)cc1,107 to 109 °C
